The values below come from ChEMBL document CHEMBL1201862, “PubChem BioAssay data set” (2004).

Activity calls are given as the source filed them. Where only a bound is given, the exact number is not on record here.

One data set concerns the target Phospholipase A2 (Homo sapiens, UniProt P04054). The data set is classed as functional.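 Further: confirmatory dose-response counterscreen on phospholipase A2, testing hits that came from an ultra-high-throughput screen for ATG4B inhibitors.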
A short description of data set [1]: HIV-1 Env-mediated cell fusion inhibitors, dose response, CCR5-tropic Env (AID 2279). In kind it is functional.
Data set [2] has as its target Tyrosine-protein phosphatase non-receptor type 7 (Homo sapiens, UniProt P35236). In words: HePTP (PTPN7) phosphatase inhibitor potency, SAR follow-up, biochemical, set 2 (AID 449736). In kind it is functional.
The target of data set [3] is G-protein coupled receptor 35 (Homo sapiens, UniProt Q9HC97). In words: SAR Analysis for the identification of Selective Antagonists of ERK1/2 Activity in GPR35-Overexpressing U2OS Cells. [Related pubchem assays: 2079, 2058 ]. In kind it is functional, cell-based.
Data set [4] addresses Tyrosine-protein phosphatase non-receptor type 12 (Homo sapiens, UniProt Q05209). The data set can be described thus: SAR Selectivity Analysis of small molecule inhibitors of PEST using pCAP in a fluorescence assay. [Related pubchem assays (depositor defined):AID1779, AID1784, AID2135]. In kind it is functional.
In data set [5] the target is T1, Tyrosine-protein phosphatase non-receptor type 22 (Homo sapiens, UniProt Q9Y2R2). The data set can be described thus: LYP (PTPN22) phosphatase inhibitor potency, SAR follow-up, biochemical, pCAP fluorogenic substrate, fluorescence, set 3 (AID 449727). In kind it is functional.
In a further data set the test system is Streptococcus. The data set can be described thus: Group A Streptococcus viability loss, dose response, counter-screen for streptokinase expression inhibitor project, luminescence, BacTiterGlo (AID 1915).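 Further: potency for reduction of bacterial viability or growth.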 The data set is classed as functional, organism-based. On the technique in general: A counterscreen serves to expose hits that act by an unwanted route or on another target.

Data set [6] concerns Streptococcus sp. 'group A'. In words: growth inhibition of control SK(-) GAS strain, dose response, counter-screen for streptokinase expression inhibitor project, luminescence, kanamycin, BacTiterGlo, confirmation (AID 1900). The data set is classed as functional, organism-based.
Data set [7] concerns the target T1, Tyrosine-protein phosphatase non-receptor type 22. The data set can be described thus: SAR LYP1 Fluorescent Assay using OMFP substrate for In Vitro dose response studies - Set 3. [Related pubchem assays (depositor defined):AID1779, AID1784, AID2140, AID2686]. In kind it is functional.
Data set [8] addresses G-protein coupled receptor 55 (Homo sapiens, UniProt Q9Y2T6). The data set can be described thus: GPR55 antagonists, SAR follow-up, counter-screen for GPR35 antagonist project, imaging, image-based (AID 2397). In kind it is functional.
Another data set has as its target T2, Cysteine protease ATG4B (Homo sapiens, UniProt Q9Y4P1).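 Further: Fluorescence-based dose-response confirmation assay measuring inhibition of ATG4B activity.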
T2 sequence (Q9Y4P1 whole entry): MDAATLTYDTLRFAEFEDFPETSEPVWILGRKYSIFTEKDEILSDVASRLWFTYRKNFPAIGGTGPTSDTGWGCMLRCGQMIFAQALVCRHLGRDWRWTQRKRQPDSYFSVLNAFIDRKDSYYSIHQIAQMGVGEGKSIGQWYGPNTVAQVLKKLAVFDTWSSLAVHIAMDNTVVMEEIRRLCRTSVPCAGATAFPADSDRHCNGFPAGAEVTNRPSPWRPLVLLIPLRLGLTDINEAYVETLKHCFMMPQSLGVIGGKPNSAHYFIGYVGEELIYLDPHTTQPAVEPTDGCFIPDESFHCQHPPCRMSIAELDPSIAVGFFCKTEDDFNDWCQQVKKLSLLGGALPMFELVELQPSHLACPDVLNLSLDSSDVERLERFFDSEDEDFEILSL
In kind it is functional.

In data set [9] the target is T3, Zinc finger protein mex-5 (Caenorhabditis elegans, UniProt Q9XUB2).
T3 sequence (Q9XUB2 whole entry): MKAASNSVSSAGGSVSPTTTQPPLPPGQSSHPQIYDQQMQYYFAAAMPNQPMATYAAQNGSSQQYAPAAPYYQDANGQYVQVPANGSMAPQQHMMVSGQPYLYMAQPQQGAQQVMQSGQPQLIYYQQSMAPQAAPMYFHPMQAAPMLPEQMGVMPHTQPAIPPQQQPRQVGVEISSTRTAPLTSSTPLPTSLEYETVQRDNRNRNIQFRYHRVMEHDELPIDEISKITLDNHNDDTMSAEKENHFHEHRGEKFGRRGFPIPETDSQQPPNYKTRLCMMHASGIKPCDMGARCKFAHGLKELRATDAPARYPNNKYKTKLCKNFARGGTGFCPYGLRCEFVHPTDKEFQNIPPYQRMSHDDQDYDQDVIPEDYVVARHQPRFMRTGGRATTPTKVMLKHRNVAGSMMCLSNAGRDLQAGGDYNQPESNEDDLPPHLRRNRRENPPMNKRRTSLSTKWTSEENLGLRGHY
The data set can be described thus: MEX-5/TCR-2 RNA interaction inhibitors, dose response, biochemical, C. elegans, fluorescence polarization (AID 1960). (Fluorescence polarisation rises when a labelled molecule tumbles more slowly, as on binding a larger partner.)

Data set [10] has as its target UDP-galactopyranose mutase (Mycobacterium tuberculosis, UniProt P9WIQ1). The data set can be described thus: Inhibitors of Mycobacterium tuberculosis UDP-galactopyranose mutase (UGM) enzyme Measured in Biochemical System Using Plate Reader - 2105-02_Inhibitor_Dose_CherryPick_Activity. [Related pubchem assays (depositor defined):AID504439].
Data set [11] concerns the target T4, RNA-binding protein pos-1 (Caenorhabditis elegans, UniProt G5EF15).
T4 sequence (G5EF15 whole entry): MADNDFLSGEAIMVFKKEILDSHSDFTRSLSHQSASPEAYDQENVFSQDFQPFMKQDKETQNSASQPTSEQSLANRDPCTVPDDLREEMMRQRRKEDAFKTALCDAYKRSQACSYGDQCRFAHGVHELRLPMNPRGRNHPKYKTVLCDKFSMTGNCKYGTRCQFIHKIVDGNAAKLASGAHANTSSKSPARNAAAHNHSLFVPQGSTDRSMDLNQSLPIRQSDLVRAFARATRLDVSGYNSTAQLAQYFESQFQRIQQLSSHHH
The data set can be described thus: inhibitors of POS-1/mex-3 RNA binding, dose response, biochemical, fluorescence polarization (AID 1964).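 Further: purified POS-1 fused to maltose binding protein made in E. coli; potency of compounds blocking POS-1 binding to fluorescent RNA.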

For another data set, the target named is T5, Cytochrome P450 1A2 (Homo sapiens, UniProt P05177).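 Further: PubChem cytochrome P450 panel assay, CYP1A2 panel member.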
T5 sequence (P05177 whole entry): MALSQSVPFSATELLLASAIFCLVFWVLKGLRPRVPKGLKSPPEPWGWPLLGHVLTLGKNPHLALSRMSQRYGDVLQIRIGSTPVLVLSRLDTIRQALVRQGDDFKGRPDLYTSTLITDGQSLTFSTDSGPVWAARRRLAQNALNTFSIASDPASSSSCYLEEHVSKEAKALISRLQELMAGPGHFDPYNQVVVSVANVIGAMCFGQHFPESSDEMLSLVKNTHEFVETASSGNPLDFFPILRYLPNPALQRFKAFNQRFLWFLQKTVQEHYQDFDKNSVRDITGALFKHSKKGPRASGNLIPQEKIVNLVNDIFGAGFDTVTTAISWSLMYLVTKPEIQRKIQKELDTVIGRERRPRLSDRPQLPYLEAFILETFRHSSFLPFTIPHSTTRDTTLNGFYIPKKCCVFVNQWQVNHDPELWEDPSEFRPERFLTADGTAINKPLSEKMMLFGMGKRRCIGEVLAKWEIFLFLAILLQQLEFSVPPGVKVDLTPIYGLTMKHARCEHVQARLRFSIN

For the next data set, the target named is SUMO E1/E2 (Homo sapiens, UniProt P63279+Q9UBE0+Q9UBT2). In words: SAR analysis of SUMOylation using HTRF in an in-Vitro dose response assay. [Related pubchem assays (depositor defined):AID2006, AID2011, AID2018, AID2069, AID2658]. The data set is classed as functional.
The target in data set [12] is Lysine-specific demethylase 4C (Homo sapiens, UniProt Q9H3R0). The data set can be described thus: GASC-1 (JMJD2C) histone demethylase inhibitors, dose response, biochemical, DELFIA europium, cherry-picked samples (AID 488835). The data set is classed as functional.
The target of the next data set is Phosphomannomutase 2 (Homo sapiens, UniProt O15305). The data set can be described thus: Counter screen SAR assay for PMM2 inhibitors via a fluorescence intensity assay. [Related pubchem assays (depositor defined):AID1545, AID1574].
Data set [13] concerns the target T6, Mannose-6-phosphate isomerase (Homo sapiens, UniProt P34949).
T6 sequence (P34949 whole entry): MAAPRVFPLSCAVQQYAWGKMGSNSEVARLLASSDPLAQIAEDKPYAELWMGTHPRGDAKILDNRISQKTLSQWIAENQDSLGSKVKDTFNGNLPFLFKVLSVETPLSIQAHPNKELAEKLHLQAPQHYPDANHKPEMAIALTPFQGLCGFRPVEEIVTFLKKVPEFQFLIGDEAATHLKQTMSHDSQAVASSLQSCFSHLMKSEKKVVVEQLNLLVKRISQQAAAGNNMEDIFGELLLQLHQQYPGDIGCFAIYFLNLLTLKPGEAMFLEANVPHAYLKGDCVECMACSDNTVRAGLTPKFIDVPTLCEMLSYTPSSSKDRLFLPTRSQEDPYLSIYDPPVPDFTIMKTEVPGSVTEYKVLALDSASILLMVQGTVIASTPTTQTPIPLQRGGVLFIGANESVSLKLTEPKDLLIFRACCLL
In words: human PMI inhibitors, high substrate, primary screen, biochemical, fluorescence intensity, high mannose 6-phosphate (AID 1220).

Data set [14] addresses DNA dC->dU-editing enzyme APOBEC-3A (Homo sapiens, UniProt P31941). The data set can be described thus: APOBEC3A DNA deaminase inhibitors, dose response, biochemical (AID 504722). In kind it is functional.
Data set [15] has as its system BJ. In words: cytotoxicity toward BJ-TERT fibroblasts, dose response, cell-based, RAS-independent, luminescence (AID 1933). The settings on record: Homo sapiens. The data set is classed as functional.
Data set [16] deals with T6, Mannose-6-phosphate isomerase. In words: PMI enzyme inhibitors, confirmation, biochemical, fluorescence intensity (AID 1535).
The target in data set [17] is DNA dC->dU-editing enzyme APOBEC-3G (Homo sapiens, UniProt Q9HC16). In words: Dose Response confirmation of small molecule APOBEC3G DNA Deaminase Inhibitors via a fluorescence-based single-stranded DNA deaminase assay. [Related pubchem assays (depositor defined):AID493012, AID493028]. In kind it is functional.
The nature of data set [18]: cytotoxicity toward DRD oncogenic fibroblasts, dose response, cell-based, non-viral oncogenic, luminescence (AID 1934). In kind it is functional. The conditions noted are these: Homo sapiens.
The test system of data set [19] is BJ. The data set can be described thus: cytotoxicity toward BJ-TERT-LT-ST fibroblasts, dose response, cell-based, RAS-independent, luminescence (AID 1935).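 Further: BJ fibroblasts immortalized with TERT plus LT and ST oncogenes.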 The settings on record: Homo sapiens. The data set is classed as functional.
Data set [20] has as its system BJ. The data set can be described thus: cells. The data set is classed as functional, cell-based. The conditions noted are these: Homo sapiens.

T1 sequence (Q9Y2R2 whole entry): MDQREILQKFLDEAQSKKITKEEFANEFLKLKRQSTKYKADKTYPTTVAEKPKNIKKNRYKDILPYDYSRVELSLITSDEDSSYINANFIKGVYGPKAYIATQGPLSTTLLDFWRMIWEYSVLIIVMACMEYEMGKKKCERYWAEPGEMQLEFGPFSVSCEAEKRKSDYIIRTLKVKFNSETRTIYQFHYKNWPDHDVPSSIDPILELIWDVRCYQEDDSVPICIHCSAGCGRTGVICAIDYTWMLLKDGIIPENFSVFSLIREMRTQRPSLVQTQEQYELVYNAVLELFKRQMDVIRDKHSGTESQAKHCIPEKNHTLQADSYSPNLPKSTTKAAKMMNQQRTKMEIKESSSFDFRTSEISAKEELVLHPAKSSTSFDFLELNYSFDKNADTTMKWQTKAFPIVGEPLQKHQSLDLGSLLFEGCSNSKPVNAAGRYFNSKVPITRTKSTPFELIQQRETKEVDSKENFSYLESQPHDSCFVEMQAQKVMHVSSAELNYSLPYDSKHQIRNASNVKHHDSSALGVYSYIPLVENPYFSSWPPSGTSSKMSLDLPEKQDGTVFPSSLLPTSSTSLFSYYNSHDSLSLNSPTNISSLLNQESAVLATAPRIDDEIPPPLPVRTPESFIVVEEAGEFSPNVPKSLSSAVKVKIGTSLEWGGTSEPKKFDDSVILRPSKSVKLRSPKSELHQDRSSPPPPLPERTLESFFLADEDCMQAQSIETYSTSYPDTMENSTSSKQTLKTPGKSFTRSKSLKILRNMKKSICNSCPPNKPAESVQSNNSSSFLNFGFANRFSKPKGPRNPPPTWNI
Chain of Phospholipase A2 (P04054 whole entry, the tested form may be a part): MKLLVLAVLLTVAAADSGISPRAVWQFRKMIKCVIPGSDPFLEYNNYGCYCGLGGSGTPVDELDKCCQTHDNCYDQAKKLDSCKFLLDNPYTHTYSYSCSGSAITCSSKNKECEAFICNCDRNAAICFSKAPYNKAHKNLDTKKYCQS
Chain of Lysine-specific demethylase 4C (Q9H3R0 whole entry): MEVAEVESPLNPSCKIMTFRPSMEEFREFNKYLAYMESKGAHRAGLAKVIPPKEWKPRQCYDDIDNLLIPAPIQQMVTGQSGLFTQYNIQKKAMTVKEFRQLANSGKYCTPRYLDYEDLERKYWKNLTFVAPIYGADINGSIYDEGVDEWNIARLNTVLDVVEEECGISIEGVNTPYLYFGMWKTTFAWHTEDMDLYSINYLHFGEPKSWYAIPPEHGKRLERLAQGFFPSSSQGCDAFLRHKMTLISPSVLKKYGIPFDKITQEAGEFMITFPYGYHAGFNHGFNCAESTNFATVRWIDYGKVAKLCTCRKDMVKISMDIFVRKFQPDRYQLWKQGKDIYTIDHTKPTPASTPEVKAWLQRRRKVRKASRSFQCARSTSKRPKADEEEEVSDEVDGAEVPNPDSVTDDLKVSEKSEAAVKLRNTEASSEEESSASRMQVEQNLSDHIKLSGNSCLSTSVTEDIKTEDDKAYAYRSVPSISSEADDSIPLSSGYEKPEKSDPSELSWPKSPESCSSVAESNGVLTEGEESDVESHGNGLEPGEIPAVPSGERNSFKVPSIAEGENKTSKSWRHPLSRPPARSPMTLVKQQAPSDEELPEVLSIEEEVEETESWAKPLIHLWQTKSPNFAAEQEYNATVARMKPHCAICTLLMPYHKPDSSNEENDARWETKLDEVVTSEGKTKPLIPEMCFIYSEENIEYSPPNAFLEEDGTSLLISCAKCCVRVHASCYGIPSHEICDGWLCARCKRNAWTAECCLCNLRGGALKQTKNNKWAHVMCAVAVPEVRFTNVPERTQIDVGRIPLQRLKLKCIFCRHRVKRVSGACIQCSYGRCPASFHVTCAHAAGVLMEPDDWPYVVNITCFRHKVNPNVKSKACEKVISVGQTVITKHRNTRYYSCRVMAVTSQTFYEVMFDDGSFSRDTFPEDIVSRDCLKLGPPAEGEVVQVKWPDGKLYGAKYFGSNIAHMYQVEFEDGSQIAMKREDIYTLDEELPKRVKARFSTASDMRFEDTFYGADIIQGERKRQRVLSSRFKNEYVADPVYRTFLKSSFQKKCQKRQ
Chain of G-protein coupled receptor 55 (Q9Y2T6 whole entry): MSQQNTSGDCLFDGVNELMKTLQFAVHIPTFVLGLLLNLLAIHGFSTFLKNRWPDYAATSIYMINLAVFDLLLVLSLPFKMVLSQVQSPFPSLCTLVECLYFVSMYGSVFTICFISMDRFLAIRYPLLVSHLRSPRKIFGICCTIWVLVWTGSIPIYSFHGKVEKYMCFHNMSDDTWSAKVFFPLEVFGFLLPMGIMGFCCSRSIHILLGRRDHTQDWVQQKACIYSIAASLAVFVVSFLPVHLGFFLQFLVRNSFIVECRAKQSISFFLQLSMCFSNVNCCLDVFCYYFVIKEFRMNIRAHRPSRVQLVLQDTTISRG
Chain of DNA dC->dU-editing enzyme APOBEC-3A (P31941 whole entry): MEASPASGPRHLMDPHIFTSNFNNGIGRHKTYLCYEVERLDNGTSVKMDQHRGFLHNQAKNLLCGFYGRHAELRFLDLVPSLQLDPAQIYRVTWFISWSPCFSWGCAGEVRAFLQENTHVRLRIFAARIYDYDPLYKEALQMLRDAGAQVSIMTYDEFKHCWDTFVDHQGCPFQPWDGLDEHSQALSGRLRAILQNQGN
Chain of Phosphomannomutase 2 (O15305 whole entry): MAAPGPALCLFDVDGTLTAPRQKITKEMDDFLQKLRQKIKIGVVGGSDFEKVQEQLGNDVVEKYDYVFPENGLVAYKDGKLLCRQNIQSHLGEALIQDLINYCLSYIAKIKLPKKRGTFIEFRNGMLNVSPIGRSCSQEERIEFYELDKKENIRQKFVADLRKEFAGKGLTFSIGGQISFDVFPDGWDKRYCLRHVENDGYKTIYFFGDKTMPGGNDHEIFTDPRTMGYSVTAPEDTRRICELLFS
Chain of DNA dC->dU-editing enzyme APOBEC-3G (Q9HC16 whole entry): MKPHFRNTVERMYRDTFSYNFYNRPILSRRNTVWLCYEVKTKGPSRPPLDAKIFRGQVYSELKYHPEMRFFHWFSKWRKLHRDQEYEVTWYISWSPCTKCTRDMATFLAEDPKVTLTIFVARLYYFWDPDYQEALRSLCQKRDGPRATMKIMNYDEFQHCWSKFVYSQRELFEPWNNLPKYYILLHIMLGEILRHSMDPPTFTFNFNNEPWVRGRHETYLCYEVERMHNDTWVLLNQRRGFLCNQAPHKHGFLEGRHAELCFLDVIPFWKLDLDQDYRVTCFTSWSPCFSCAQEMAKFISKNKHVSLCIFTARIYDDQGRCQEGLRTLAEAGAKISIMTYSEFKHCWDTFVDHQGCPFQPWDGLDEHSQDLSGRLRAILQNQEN
Chain of G-protein coupled receptor 35 (Q9HC97 whole entry): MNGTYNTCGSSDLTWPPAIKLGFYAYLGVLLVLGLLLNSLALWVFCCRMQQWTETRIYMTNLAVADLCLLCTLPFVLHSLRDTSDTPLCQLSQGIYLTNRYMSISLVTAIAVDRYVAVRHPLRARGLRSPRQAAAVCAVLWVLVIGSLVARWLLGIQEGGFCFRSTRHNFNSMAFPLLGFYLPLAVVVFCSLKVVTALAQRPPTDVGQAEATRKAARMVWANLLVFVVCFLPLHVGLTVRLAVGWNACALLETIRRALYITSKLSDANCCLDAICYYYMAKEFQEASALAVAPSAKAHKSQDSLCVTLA
Chain of SUMO E1/E2 (Q9UBE0 whole entry): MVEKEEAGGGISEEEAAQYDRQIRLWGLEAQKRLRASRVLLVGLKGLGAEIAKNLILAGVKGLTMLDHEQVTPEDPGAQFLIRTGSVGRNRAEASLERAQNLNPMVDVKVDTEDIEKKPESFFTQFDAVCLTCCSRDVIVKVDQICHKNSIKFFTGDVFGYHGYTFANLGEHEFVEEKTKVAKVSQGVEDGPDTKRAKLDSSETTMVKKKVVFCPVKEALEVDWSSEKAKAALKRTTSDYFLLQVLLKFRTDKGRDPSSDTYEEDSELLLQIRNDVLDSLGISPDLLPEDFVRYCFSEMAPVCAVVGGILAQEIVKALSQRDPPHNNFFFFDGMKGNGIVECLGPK
Chain of SUMO E1/E2 (Q9UBT2 whole entry): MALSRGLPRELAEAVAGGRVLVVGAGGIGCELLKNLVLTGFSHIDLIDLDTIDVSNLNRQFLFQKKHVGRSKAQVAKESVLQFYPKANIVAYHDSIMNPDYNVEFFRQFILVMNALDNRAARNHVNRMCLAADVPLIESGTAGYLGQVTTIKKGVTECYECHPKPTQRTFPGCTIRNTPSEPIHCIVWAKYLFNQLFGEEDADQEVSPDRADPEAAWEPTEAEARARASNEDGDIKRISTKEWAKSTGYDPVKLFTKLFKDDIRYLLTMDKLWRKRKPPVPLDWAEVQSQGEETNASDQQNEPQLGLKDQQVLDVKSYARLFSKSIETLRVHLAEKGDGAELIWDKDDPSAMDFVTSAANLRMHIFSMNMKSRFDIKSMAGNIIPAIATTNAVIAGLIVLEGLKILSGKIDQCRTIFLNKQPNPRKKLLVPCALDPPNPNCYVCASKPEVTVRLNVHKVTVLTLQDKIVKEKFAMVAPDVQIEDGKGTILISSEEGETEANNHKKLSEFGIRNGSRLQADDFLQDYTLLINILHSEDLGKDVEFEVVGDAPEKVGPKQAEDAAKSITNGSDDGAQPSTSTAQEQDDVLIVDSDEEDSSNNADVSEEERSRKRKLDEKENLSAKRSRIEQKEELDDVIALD
Chain of SUMO E1/E2 (P63279 whole entry): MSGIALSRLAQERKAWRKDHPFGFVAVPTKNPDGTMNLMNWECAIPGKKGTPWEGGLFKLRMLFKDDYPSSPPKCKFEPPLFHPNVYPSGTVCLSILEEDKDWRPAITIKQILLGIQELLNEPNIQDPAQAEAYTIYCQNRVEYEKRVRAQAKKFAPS

One may read the IC50 as the point on the concentration scale where inhibition reaches its midpoint. The EC50 is the midpoint of the concentration-response curve. `CC(/C=C1\SC(=S)N(CCCC(=O)Nc2ccc(C(=O)O)cc2)C1=O)=C\c1ccccc1`: the IC50 is 5.33 µM (active) at Phospholipase A2; 38.9 µM (active) in [1]; 1.28 µM (active) in data set [2]; 1.59 µM (active) in data set [3]; 8.24 µM (active) in [4]; 47.1 µM (active) in [5]. In addition, the half-maximal inhibitory concentration (IC50) in data set [7] is 34.8 µM (active); in data set [8], 17.9 µM (inactive); on Cysteine protease ATG4B, 6.85 µM (active). Also, the EC50 in the data set with Streptococcus is 1.04 µM (active); in data set [6], 274 nM (active).

The term AC50 denotes the midpoint of the concentration-response curve, whichever way the signal moves. Regarding `O=C1c2cccc3c(N4CCCCC4)ccc(c23)C(=O)N1c1ccccn1`, the EC50 is 5.26 µM (inconclusive) in data set [9] and > 300 µM (inconclusive) in data set [11]. In data set [10], the half-maximal activity concentration (AC50) was 58.7 µM (active).

`O=C(c1cnccn1)N1CCC2(CCN(Cc3cc(C(F)(F)F)cc(C(F)(F)F)c3)CC2)CC1`: the AC50 entry on Cytochrome P450 1A2 was “inactive”.

Take `S=c1[nH]nc(-c2cc(-c3ccccc3)[nH]n2)n1N=Cc1cccc(Cl)c1`: at SUMO E1/E2, the half-maximal inhibitory concentration (IC50) is 12.5 µM (active).

For `N#Cc1ccc(/N=c2\ssnc2Cl)cc1`, the AC50 in data set [12] is 5.67 µM (active). Also, the IC50 at Phosphomannomutase 2 is > 100 µM (inactive); in data set [13], 6.34 µM (not active); in data set [14], > 100 µM (inactive); in data set [16] it was 4.14 µM (active); in data set [17] it was 7.33 µM (active). The EC50 was 6.16 µM (inconclusive) in the data set with BJ [15], 14.3 µM (active) in [18], > 150 µM (inconclusive) in the data set on BJ [19] and > 150 µM (inconclusive) with BJ [20].
